ChEMBL document CHEMBL1142916, “Synthesis and biological activity of 2,5-diaryl-3-methylpyrimido[4,5-c]quinolin-1(2H)-one derivatives” (Bioorg Med Chem, 2007)
Activity calls are given as the source filed them. The calls are words filed in the database; no cut-off is given here.

Assays:
PC-3 = experiment: Cytotoxicity against human PC3 cells after 3 days by MTT assay; assay type: functional, cell-based; details: PC-3, 72 h
Bos taurus [1] = species: Bos taurus; experiment: Inhibition of bovine brain tubulin polymerization at 40 uM in presence of microtubule associated proteins
Bos taurus [2] = species: Bos taurus; experiment: Inhibition of bovine brain tubulin polymerization at 40 uM absence of microtubule associated proteins
Bos taurus [3] = species: Bos taurus; experiment: Inhibition of bovine brain tubulin polymerization at 27 uM in presence of microtubule associated proteins
Bos taurus [4] = species: Bos taurus; experiment: Inhibition of bovine brain tubulin polymerization at 27 uM in absence of microtubule associated proteins

SMILES	IC50 (PC-3)	further results
Cc1ccccc1-n1c(C)nc2c(-c3ccc(Br)cc3)nc3ccccc3c2c1=O	> 30 µM	
Cc1nc2c(-c3ccc(Cl)cc3)nc3ccccc3c2c(=O)n1-c1ccc(F)cc1	4 µM	
Cc1nc2c(-c3ccc(Cl)cc3)nc3ccccc3c2c(=O)n1-c1ccc(Cl)cc1	> 28 µM	
Cc1nc2c(-c3ccc(Br)cc3)nc3ccccc3c2c(=O)n1-c1ccc(Cl)cc1	1.9 µM	
COc1ccccc1-n1c(C)nc2c(-c3ccc(Br)cc3)nc3ccccc3c2c1=O	6.7 µM	
Cc1nc2c(-c3ccc(Br)cc3)nc3ccccc3c2c(=O)n1-c1ccc(Br)cc1	3.3 µM	
Cc1nc2c(-c3ccc(Br)cc3)nc3ccccc3c2c(=O)n1-c1cccc(Cl)c1	> 25 µM	
Cc1nc2c(-c3ccc(Br)cc3)nc3ccccc3c2c(=O)n1-c1cccc(Br)c1	> 10 µM	
Cc1nc2c(-c3ccc(Br)cc3)nc3ccccc3c2c(=O)n1-c1ccccc1Cl	> 28 µM	
Cc1nc2c(-c3ccc(Br)cc3)nc3ccccc3c2c(=O)n1-c1ccccc1Br	> 20 µM	
Cc1nc2c(-c3ccc(Cl)cc3)nc3ccccc3c2c(=O)n1-c1ccccc1	3.2 µM	
Cc1ccc(-n2c(C)nc3c(-c4ccc(Cl)cc4)nc4ccccc4c3c2=O)cc1	> 32 µM	
Cc1nc2c(-c3ccc(Cl)cc3)nc3ccccc3c2c(=O)n1-c1ccc(Br)cc1	2.5 µM	
Cc1nc2c(-c3ccc(Cl)cc3)nc3ccccc3c2c(=O)n1-c1ccccc1Br	> 42 µM	
Cc1nc2c(-c3ccc(Br)cc3)nc3ccccc3c2c(=O)n1-c1ccc(F)cc1	5.5 µM	
Cc1nc2c(-c3ccc(Cl)cc3)nc3ccccc3c2c(=O)n1-c1cccc(Cl)c1	> 26 µM	
Cc1nc2c(-c3ccc(Cl)cc3)nc3ccccc3c2c(=O)n1-c1ccccc1Cl	2 µM	
COc1ccc(-n2c(C)nc3c(-c4ccc(Cl)cc4)nc4ccccc4c3c2=O)cc1	1.6 µM	Activity (Bos taurus [1]): inactive; Activity (Bos taurus [2]): inactive
Cc1ccccc1-n1c(C)nc2c(-c3ccc(Cl)cc3)nc3ccccc3c2c1=O	> 38 µM	
Cc1nc2c(-c3ccc(Br)cc3)nc3ccccc3c2c(=O)n1-c1ccccc1	2.2 µM	
COc1ccccc1-n1c(C)nc2c(-c3ccc(Cl)cc3)nc3ccccc3c2c1=O	10.5 µM	
COc1ccc(-n2c(C)nc3c(-c4ccc(Br)cc4)nc4ccccc4c3c2=O)cc1	2.5 µM	
COc1cc2c(c(OC)c1OC)-c1ccc(OC)c(=O)cc1[C@@H](NC(C)=O)CC2 [COLCHICINE]	0.018 µM	
Cc1ccc(-n2c(C)nc3c(-c4ccc(Br)cc4)nc4ccccc4c3c2=O)cc1	> 21.3 µM	
Cc1nc2c(-c3ccc(Cl)cc3)nc3ccccc3c2c(=O)n1-c1cccc(Br)c1	1.4 µM	Activity (Bos taurus [3]): inactive; Activity (Bos taurus [4]): inactive
